{"source": "patent US10793526B2", "about": "“Hydantoin derivative compounds, methods of use and methods of treatment” (University of South Florida, priority 2016, dated 2020)", "key": {"MRSA [1]": {"test_system": "MRSA", "assay": "Time kill assay, MRSA", "type": "cell-based, Staphylococcus aureus", "procedure": "(§1) Bacteria MRSA (Gram-positive) and E. coli (Gram-negative) suspensions were allowed to grow at 37° C. to the mid-logarithmic phase, and diluted to 1×10^6 CFU/mL, then incubated with the compound 22 at the concentration of 50, 25, 12.5 μg/mL at 10 min, 30 min, 1 h and 2 h, respectively. The resulted mixture was then diluted by 10^2 to 10^4 fold, from which 100 μL was spread on the TSB agar plate. The Number of bacteria colonies was counted after 20 h of incubation at 37° C."}, "[2]": {"test_system": "ovarian cancer cells (C13)", "assay": "Selectivity for mammalian cells, C13", "type": "cell-based", "conditions": "Homo sapiens, read-out: IC50 toward ovarian cancer cells (C13)"}, "[3]": {"test_system": "P. aeruginosa (ATCC 27853)", "assay": "Minimum inhibitory concentration (MIC) assay, P. aeruginosa", "type": "cell-based, Pseudomonas aeruginosa"}, "MRSA [4]": {"test_system": "MRSA", "assay": "Drug resistance assay", "type": "cell-based, Staphylococcus aureus", "procedure": "The lead compound 22 was chosen for drug resistance studies. Briefly, after its MIC against MRSA was determined, the bacteria solution from the well of the ½ MIC was withdrawn and diluted to 1×10^6 CFU/mL for the next MIC measurement. The measurement was repeated for 14 passages."}, "[5]": {"test_system": "red blood cells (RBCs) of mice", "assay": "Hemolytic assay", "type": "cell-based", "conditions": "hemolytic activity; mouse RBCs, 1 h at 37° C.", "procedure": "Fresh red blood cells (RBCs) of mice were washed with 1×PBS buffer and centrifuged 10 min at 3500 rpm for 3 times until the supernatant was clear, then RBCs were diluted into 5% v/v suspension in 1×PBS. 50 μL compounds in PBS were 2-fold serially diluted in a 96-well plate, and incubated with 50 μL RBCs suspension for 1 h at 37° C. The mixture was then centrifuged for 10 min at 3500 rpm. Subsequently, 30 μL of the supernatant was added to 100 μL PBS, then the absorbance of mixture was read on a Biotek Synergy HT plate reader at 540 nm. The hemolytic activity was calculated by the formula % hemolysis=(Abssample−AbsPBS)/(AbsTriton−AbsPBS)×100%. 1% Triton X-100 were used as the positive control and 1×PBS buffer was used as the negative control."}, "E. coli [6]": {"test_system": "E. coli", "assay": "Time kill assay, E. coli", "type": "cell-based, Escherichia coli", "procedure": "as §1, with “[…],” for “then incubated with the compound 22 at the concentration of 50, 25, 12.5 μg/mL at 10 min,”"}, "[7]": {"test_system": "methicillin-resistant S. epidermidis (MRSE, RP62A)", "assay": "Minimum inhibitory concentration (MIC) assay, MRSE", "type": "cell-based, Staphylococcus epidermidis", "conditions": "Staphylococcus epidermidis, MRSE, Gram positive, 16 h incubation, read-out: MIC (μg/mL) MRSE"}, "[8]": {"test_system": "K. pneumoniae (ATCC 13383)", "assay": "Minimum inhibitory concentration (MIC) assay, K. pneumoniae", "type": "cell-based, Klebsiella pneumoniae", "conditions": "Klebsiella pneumoniae, ATCC13383, Gram negative, 16 h incubation, read-out: MIC (μg/mL) K.P."}, "MRSA [9]": {"test_system": "MRSA", "assay": "Fluorescence microscopy (DAPI/PI) membrane damage, MRSA", "type": "cell-based, Staphylococcus aureus", "conditions": "5 μg/mL, 2 h"}, "[10]": {"test_system": "MRSA-induced lung inflammation", "assay": "Rat model of MRSA-induced pneumonia, pathological analysis (H&E)", "type": "in vivo", "conditions": "10 mg/kg i.v.", "procedure": "The rat model of MRSA-induced pneumonia.^4, 5\nThe protocol of animal studies was approved by the institutional committee for animal care of Nanjing University, and the experiments were conducted following the regulation of the National Ministry of Health of China. In Brief, male Wistar rats (6-8 weeks, ˜200 g in average weight) were subjected to fast for 12 h. Next, rats were anesthetized by intraperitoneal administration of 0.35 g/kg of chloral hydrate. To induce MRSA pneumonia, the trachea of rats were exposed, to which 100 μL PBS containing 2×10^6 CFU/mL MRSA in PBS was slowly injected. The rats were retained upright for 1 min, and the cut was sealed. The MRSA infection was allowed to develop for 24 h.\nThe hydantoin compound 22 or vancomycin were used as antibiotics in the study. In brief, a dose of 10 mg/kg of the drug was injected to the tested rats intravenously. On the day of 3 and 5, rats were sacrificed, and lung sections were stained with hematoxylin and eosin (H&E), and their morphology was investigated under a light microscope at 100× magnification. The existence (indicated by the infiltration of neutrophils) and the extent of possible inflammatory response (indicated by the integrity of the alveolar structure and endothelium cilium) were recorded from at least five randomly picked sections by an experienced physician."}, "E. coli [11]": {"test_system": "E. coli", "assay": "Fluorescence microscopy (DAPI/PI) membrane damage, E. coli", "type": "cell-based, Escherichia coli", "conditions": "5 μg/mL, 2 h", "procedure": "Fluorescence microscopy.^2\nBoth propidium iodide (PI) and 4′, 6′-diamidino-2-phenylindole dihydrochloride (DAPI) fluorescent dyes were used in the studies to determine the ability of the compound 22 to compromise the membranes of MRSA and E. coli, respectively. […] After centrifugation for 15 min at 5000 rpm, cell pellets were washed with 1×PBS buffer, and incubated with PI (5 μg/mL) for 15 min on ice in the dark, then washed 2 times with PBS. Then the cell pellets were incubated with DAPI (10 μg/mL) in the similar way. The pellets were then diluted in 100 μL PBS, and 10-20 μL of the suspension was applied on chamber slides and observed under Zeiss Axio Image Zloptical microscope using 100× oil-immersion objective."}}, "data": [{"compound": "CCCCCCCCCCCC(=O)N[C@@H](CCCCN)CN1CC(=O)N(c2cccc(Cl)c2)C1=O", "note": "[Compound 22, (S)—N-(6-amino-1-(3-(3-chlorophenyl)-2,4-dioxoimidazolidin-1-yl)hexan-2-yl)dodecanamide]", "values": [{"measurement": "time to completely eradicate MRSA", "setting": "MRSA [1]; 2.0 μg/mL (4×MIC)", "value": 60, "unit": "min"}, {"measurement": "time to completely eradicate MRSA", "setting": "MRSA [1]; 25 μg/mL", "value": 10, "unit": "min"}, {"measurement": "IC50", "setting": "[2]", "value": 90, "unit": "µg/mL"}, {"measurement": "MIC", "setting": "[3]; Pseudomonas aeruginosa, ATCC27853, Gram negative, ATCC 27853, 16 h incubation, read-out: MIC (μg/mL) P.A.", "value": 1, "unit": "µg/mL"}, {"measurement": "effectiveness toward P. aeruginosa compared with nitrofurantoin", "setting": "[3]; ratio of MICs", "value": "at least 50 fold"}, {"measurement": "MIC against MRSA after 14 passages at half MIC", "setting": "MRSA [4]", "value": "virtually remain unchanged"}, {"measurement": "HC50", "setting": "[5]", "value": 95, "unit": "µg/mL"}, {"measurement": "time to completely eradicate E. coli", "setting": "E. coli [6]; 4.0 μg/mL (4×MIC)", "value": 60, "unit": "min"}, {"measurement": "time to eradicate all E. coli", "setting": "E. coli [6]; 25 μg/mL", "value": 30, "unit": "min"}, {"measurement": "time to eradicate all E. coli", "setting": "E. coli [6]; 50 μg/mL", "value": 30, "unit": "min"}, {"measurement": "MIC", "setting": "[7]", "value": 0.5, "unit": "µg/mL"}, {"measurement": "MIC", "setting": "[8]", "value": 0.78, "unit": "µg/mL"}, {"measurement": "membrane damage of MRSA (DAPI/PI staining)", "setting": "MRSA [9]", "value": "membranes of both MRSA and E. coli were damaged"}, {"measurement": "lung inflammation (H&E staining), day 3", "setting": "[10]; day 3", "value": "only mild inflammation"}, {"measurement": "lung inflammation (H&E staining), day 5", "setting": "[10]; day 5", "value": "virtually the normal condition"}, {"measurement": "membrane damage of E. coli (DAPI/PI staining)", "setting": "E. coli [11]", "value": "membranes of both MRSA and E. coli were damaged"}]}]}
